The test system of the first test is interaction between Human tRNA^Lys3 and HIV-1 genomic RNA. The experiment in a line: Biochemical HIV-1 tRNA Inhibition Assay (AlphaScreen). More on the design: key: +: showing some activity; ++: intermediate activity; +++: the highest activity. The note with it: active compounds from high throughput screening, prioritized on IC50. The test is classed as binding. The text has this: The methods for detecting binding of the target RNA to the tRNA or the inhibition of such binding may be performed using any method for such detection. For example, the AlphaScreen® assay (Packard Instrument Company, Meriden, Conn.). AlphaScreen® technology is an “Amplified Luminescent Proximity Homogeneous Assay” method utilizing latex microbeads (250 nm diameter) containing a photosensitizer (donor beads), or chemiluminescent groups and fluorescent acceptor molecules (acceptor beads). Upon illumination with laser light at 680 nm, the photosensitizer in the donor bead converts ambient oxygen to singlet-state oxygen. The excited singlet-state oxygen molecules diffuse approximately 250 nm (one bead diameter) before rapidly decaying. If the acceptor bead is in close proximity to the donor bead (i.e., by virtue of the interaction of the target RNA and tRNA fragment), the singlet-state oxygen molecules reacts with chemiluminescent groups in the acceptor beads, which immediately transfer energy to fluorescent acceptors in the same bead. These fluorescent acceptors shift the emission wavelength to 520-620 nm, resulting in a detectable signal. Antagonists of the interaction of the target RNA with the tRNA fragment will thus inhibit the shift in emission wavelength, whereas agonists of this interaction would enhance it.
In the AlphaScreen configuration (FIG. 3) the assay is done in solution using the same RNA as the immobilization assay. The donor and acceptor beads are bound to their respective RNA's. During the screening the RNAs and test drugs/small molecules are incubated together and formation of the complex is measured using the AlphaScreen detection conditions. Utilization of the AlphaScreen assay may allow for the assay to be run at a lower RNA concentration at room temperature, and increase the stability of the complex.
HIV-1 has evolved to use Human tRNA^Lys3 as a primer for initiation of reverse transcription. Therefore, the interaction between tRNA^Lys3 and viral genomic RNA represents a potential novel target for HIV-1 drug development. Based on this hypothesis, a biochemical assay to identify inhibitors of the interaction between Human tRNA^Lys3 and HIV-1 genomic RNA was developed by TRANA Discovery and transferred to Southern Research Institute for high-throughput screening. This assay was developed as a homogeneous amplified luminescent proximity assay using AlphaScreen™ reagents from PerkinElmer. Based on this assay technology, the AlphaScreen™ luminescent signal serves as a mechanism for detecting the interaction between RNA molecules that represent Human tRNA^Lys3 and HIV-1 genomic RNA. The inhibition of the interaction between these RNA molecules by test compounds is detected as a decrease in the AlphaScreen™ luminescent signal.
A preliminary 15,000 compound screen (NINDS Diversity Set) was previously completed and the results were reported through NIAID contract N01-AI-70042. For the results described herein, a 101,000 compound library that was purchased from ChemBridge for the NIAID TAACF program was used. This library was carefully selected for diversity and minimal similarity to the 100,000 compound NINDS library, which is also planned to be screened using the TRANA Discovery Biochemical HIV-1 tRNA Inhibition Assay. The compounds were screened at a concentration of 12.5 μg/mL (first 3 batches) or 25 μg/mL (fourth and final batch).
`Cc1ccc2c(c1)-c1c(s[s+]c1SCC(=O)c1ccc([N+](=O)[O-])cc1)C(C)(C)N2.[Cl-]` [4,4,8-trimethyl-1-{[2-(4-nitrophenyl)-2-oxoethyl]thio}-4,5-dihydro[1,2]dithiolo[3,4-c]quinolin-2-ium chloride]: the Activity result is “++”.

Turning to `O=C1NC(=S)N(c2ccc(Cl)cc2)C(=O)C1=Cc1ccc([N+](=O)[O-])o1` [1-(4-chlorophenyl)-5-[(5-nitro-2-furyl)methylene]-2-thioxodihydro-4,6(1H,5H)-pyrimidinedione], the Activity result is listed as “+”. For the molecule `Cc1cccc(N2C(=O)C(=Cc3cccn3C)C(=O)NC2=S)c1` [1-(3-methylphenyl)-5-[(1-methyl-1H-pyrrol-2-yl)methylene]-2-thioxodihydro-4,6(1H,5H)-pyrimidinedione], the Activity entry was “++”. As for `Cc1[nH]c(=O)[nH]c1C(=O)CCCCC(=O)O` [6-(5-methyl-2-oxo-2,3-dihydro-1H-imidazol-4-yl)-6-oxohexanoic acid], the Activity result was “+++”. As for `CN(CCN(C)N=Cc1cccc([N+](=O)[O-])c1)N=Cc1cccc([N+](=O)[O-])c1` [3-nitrobenzaldehyde 1,2-ethanediyl(methylhydrazone)], the Activity entry was “+”. Consider `O=C1NC(=O)N(c2cccc3ccccc23)C(=O)C1=Cc1ccco1` [5-(2-furylmethylene)-1-(1-naphthyl)-2,4,6(1H,3H,5H)-pyrimidinetrione], for which the Activity entry is “+”. As to `O=C1C(=Cc2ccc(O)c(O)c2)SC(=S)N1c1cccc(F)c1` [5-(3,4-dihydroxybenzylidene)-3-(3-fluorophenyl)-2-thioxo-1,3-thiazolidin-4-one], the Activity result is “++”. Turning to `Cc1cccc(CNc2ccc3c(c2)OCO3)c1` [1,3-benzodioxol-5-yl(3-methylbenzyl)amine], the Activity entry was “+”.

In the case of `CCC(=NNc1ccccc1[N+](=O)[O-])c1ccc(O)cc1` [1-(4-hydroxyphenyl)-1-propanone (2-nitrophenyl)hydrazone], the Activity result is recorded as “++”. Same read-out and setting: in the case of `Cc1ccc2c(C)nc(Nc3nc(C)cc(O)n3)nc2c1` [2-[(4,7-dimethyl-2-quinazolinyl)amino]-6-methyl-4-pyrimidinol] it was “+”; in that of `O=C(NN1C(=O)C(=Cc2ccc(O)c(O)c2)SC1=S)c1ccccc1Br` [2-bromo-N-[5-(3,4-dihydroxybenzylidene)-4-oxo-2-thioxo-1,3-thiazolidin-3-yl]benzamide], “+”; in that of `Cc1nc(NC(=N)N)nc2c(C)cccc12` [N-(4,8-dimethyl-2-quinazolinyl)guanidine], “+”. Regarding `CC1(C)CC(Nc2cccc3c2C(=O)c2ccccc2C3=O)CC(C)(C)N1` [1-[(2,2,6,6-tetramethyl-4-piperidinyl)amino]anthra-9,10-quinone], the Activity entry was “+”. `CCN(CC)CCN(CC)Cc1ccc(N(C)C)cc1` [N-[4-(dimethylamino)benzyl]-N,N′,N′-triethyl-1,2-ethanediamine]: the Activity entry is listed as “+”. As for `CCOc1ccc2c(c1)-c1c(s[s+]c1SC)C(C)(C)N2.[Cl-]` [8-ethoxy-4,4-dimethyl-1-(methylthio)-4,5-dihydro[1,2]dithiolo[3,4-c]quinolin-2-ium chloride], the Activity result is listed as “++”. With `O=[N+]([O-])c1ccc(Nc2ccccc2O)c2nonc12` [2-[(7-nitro-2,1,3-benzoxadiazol-4-yl)amino]phenol], the Activity result is listed as “++”.

`COc1ccc2c(c1)-c1c(ssc1=S)C(C)(C)N2C(C)=O` [5-acetyl-8-methoxy-4,4-dimethyl-4,5-dihydro-1H-[1,2]dithiolo[3,4-c]quinoline-1-thione]: the Activity result is on record as “+”. Turning to `CCOC(=O)C=C1NC(c2ccccc2)=C(c2ccccc2)C1=O` [ethyl (3-oxo-4,5-diphenyl-1,3-dihydro-2H-pyrrol-2-ylidene)acetate], the Activity entry is “++”. For the molecule `CCN(CC)c1ccc(NC(=S)NC(=O)c2cccc(OC(C)C)c2)cc1` [N-({[4-(diethylamino)phenyl]amino}carbonothioyl)-3-isopropoxybenzamide], the Activity result is listed as “+”. On the same count and under the same terms, the same measure for `COc1cccc(NC2=C(N3CCOCC3)C(=O)c3ccccc3C2=O)c1` [2-[(3-methoxyphenyl)amino]-3-(4-morpholinyl)naphthoquinone]: “++”.

For `Cc1cccc(NC2=C(NCCO)C(=O)c3ccccc3C2=O)c1` [2-[(2-hydroxyethyl)amino]-3-[(3-methylphenyl)amino]naphthoquinone], the Activity entry is “+”. `COc1cccc(NC2=C(N3CCCC3)C(=O)c3ccccc3C2=O)c1` [2-[(3-methoxyphenyl)amino]-3-(1-pyrrolidinyl)naphthoquinone]: the Activity entry is “++”. As for `O=C1C(Nc2cccc(F)c2)=C(N2CCCC2)C(=O)c2ccccc21` [2-[(3-fluorophenyl)amino]-3-(1-pyrrolidinyl)naphthoquinone], the Activity entry was “++”. Regarding `CN1C(=O)C(=Cc2c(Cl)ccc([N+](=O)[O-])c2Cl)SC1=S` [5-(2,6-dichloro-3-nitrobenzylidene)-3-methyl-2-thioxo-1,3-thiazolidin-4-one], the Activity entry was “++”. On to `COc1ccccc1N1CCN(CC=Cc2ccc(N(C)C)cc2)CC1` [(4-{3-[4-(2-methoxyphenyl)-1-piperazinyl]-1-propen-1-yl}phenyl)dimethylamine], for which the Activity result is on record as “+”.

For the molecule `Cc1cccc(NC2=C(N(C)C)C(=O)c3ccccc3C2=O)c1` [2-(dimethylamino)-3-[(3-methylphenyl)amino]naphthoquinone], the Activity entry was “++”. For `CCOC(=O)C(C(=O)c1ccccc1)C1=CC(=O)C(=O)c2ccc(Br)cc21` (centres unmarked) [ethyl 2-(7-bromo-3,4-dioxo-3,4-dihydro-1-naphthalenyl)-3-oxo-3-phenylpropanoate], the Activity entry was “+”. Take `CC(C)NC1=C(Cl)C(=O)c2ccccc2C1=O` [2-chloro-3-(isopropylamino)naphthoquinone]: the Activity entry was “+”. The same measure, in the same setting: the same measure for `Cc1ccccc1NC1=C(N)C(=O)c2ccccc2C1=O` [2-amino-3-[(2-methylphenyl)amino]naphthoquinone]: “+”. Regarding `CC(=O)c1ccc(NC2=C(N3CCCC3)C(=O)c3ccccc3C2=O)cc1` [2-[(4-acetylphenyl)amino]-3-(1-pyrrolidinyl)naphthoquinone], the Activity result is recorded as “++”.

Tested on in another test: not listed separately
Briefly: assays described herein (not specified).
Conditions: not given
Regarding `O=C(c1ccc(Br)cc1)c1ccc(N2CCCCC2)c([N+](=O)[O-])c1` [Compound 92, (4-bromophenyl)[3-nitro-4-(1-piperidinyl)phenyl]methanone], the “active in the assays described herein” value was “active”. Take `CCCOc1ccc(C2Oc3ccc(Br)cc3C=C2[N+](=O)[O-])cc1OC` (centres unmarked) [Compound 59, 6-bromo-2-(3-methoxy-4-propoxyphenyl)-3-nitro-2H-chromene]: the “active in the assays described herein” value is on record as “active”. Same read-out and setting: in the case of `CN(C)c1ccc2sc(S)nc2c1` [Compound 95, 5-(dimethylamino)-1,3-benzothiazole-2-thiol] it was “active”; in that of `CCc1ccc(N2N=C(C)C(=Cc3cc(OC)c(O)c(OC)c3)C2=O)cc1` [Compound 72, 2-(4-ethylphenyl)-4-(4-hydroxy-3,5-dimethoxybenzylidene)-5-methyl-2,4-dihydro-3H-pyrazol-3-one], “active”. Turning to `CCc1cc2c(=S)c(-c3ccccc3Cl)coc2cc1OC` [Compound 47, 3-(2-chlorophenyl)-6-ethyl-7-methoxy-4H-chromene-4-thione], the “active in the assays described herein” value is given as “active”.
